Data reported in the NIST ThermoML archive (doi:10.1021/je100057b).
Several values for one entry are separate records, joined by “and”; a condition that tells them apart may be missing. Equal entries are not always repeated. Numbers after ± are expanded uncertainties.

Conditions: Liquid, Falling or rolling sphere viscometry

CCCCC(=O)OCC(COCC(COC(=O)CCCC)(COC(=O)CCCC)COC(=O)CCCC)(COC(=O)CCCC)COC(=O)CCCC
Conditions | viscosity
283.15 K, 101.33 kPa | 259 ± 18 mPa·s and 257.9 ± 18 mPa·s
288.15 K, 101.33 kPa | 189.2 ± 12 mPa·s and 188.5 ± 12 mPa·s
293.15 K, 101.33 kPa | 141.2 ± 8 mPa·s and 140.8 ± 8 mPa·s
298.15 K, 101.33 kPa | 107.6 ± 5.7 mPa·s and 107.3 ± 5.7 mPa·s
303.15 K, 100 kPa | 85.9 ± 4.3 mPa·s
303.15 K, 101.33 kPa | 83.52 ± 4.2 mPa·s and 83.31 ± 4.1 mPa·s
303.15 K, 1000 kPa | 87.2 ± 4.4 mPa·s
303.15 K, 5000 kPa | 93.2 ± 4.7 mPa·s
303.15 K, 10000 kPa | 101 ± 5 mPa·s
303.15 K, 20000 kPa | 119 ± 6 mPa·s
303.15 K, 30000 kPa | 139 ± 8 mPa·s
303.15 K, 40000 kPa | 163 ± 10 mPa·s
303.15 K, 50000 kPa | 189 ± 12 mPa·s
303.15 K, 60000 kPa | 219 ± 14 mPa·s
308.15 K, 101.33 kPa | 65.88 ± 3.2 mPa·s and 65.72 ± 3.1 mPa·s
313.15 K, 100 kPa | 54.3 ± 2.6 mPa·s
313.15 K, 101.33 kPa | 52.73 ± 2.5 mPa·s and 52.64 ± 2.5 mPa·s
313.15 K, 1000 kPa | 55.1 ± 2.6 mPa·s
313.15 K, 5000 kPa | 58.8 ± 2.8 mPa·s
313.15 K, 10000 kPa | 63.6 ± 3 mPa·s
313.15 K, 20000 kPa | 74.4 ± 3.6 mPa·s
313.15 K, 30000 kPa | 86.6 ± 4.3 mPa·s
313.15 K, 40000 kPa | 100 ± 5 mPa·s
313.15 K, 50000 kPa | 116 ± 6 mPa·s
313.15 K, 60000 kPa | 133 ± 7 mPa·s
318.15 K, 101.33 kPa | 42.8 ± 2 mPa·s and 42.75 ± 2 mPa·s
323.15 K, 101.33 kPa | 35.18 ± 1.7 mPa·s and 35.15 ± 1.7 mPa·s
328.15 K, 101.33 kPa | 29.24 ± 1.4 mPa·s and 29.25 ± 1.4 mPa·s
333.15 K, 100 kPa | 25 ± 1.2 mPa·s
333.15 K, 101.33 kPa | 24.55 ± 1.2 mPa·s and 24.59 ± 1.2 mPa·s
333.15 K, 1000 kPa | 25.4 ± 1.2 mPa·s
333.15 K, 5000 kPa | 26.9 ± 1.3 mPa·s
333.15 K, 10000 kPa | 29 ± 1.4 mPa·s
333.15 K, 20000 kPa | 33.6 ± 1.6 mPa·s
333.15 K, 30000 kPa | 38.6 ± 1.8 mPa·s
333.15 K, 40000 kPa | 44.2 ± 2.1 mPa·s
333.15 K, 50000 kPa | 50.3 ± 2.4 mPa·s
333.15 K, 60000 kPa | 56.9 ± 2.7 mPa·s
338.15 K, 101.33 kPa | 20.81 ± 0.99 mPa·s and 20.88 ± 1 mPa·s
343.15 K, 101.33 kPa | 17.79 ± 0.85 mPa·s and 17.88 ± 0.85 mPa·s
348.15 K, 101.33 kPa | 15.34 ± 0.73 mPa·s and 15.44 ± 0.74 mPa·s
353.15 K, 100 kPa | 13.5 ± 0.7 mPa·s
353.15 K, 101.33 kPa | 13.33 ± 0.64 mPa·s and 13.42 ± 0.64 mPa·s
353.15 K, 1000 kPa | 13.6 ± 0.7 mPa·s
353.15 K, 5000 kPa | 14.4 ± 0.7 mPa·s
353.15 K, 10000 kPa | 15.45 ± 0.74 mPa·s
353.15 K, 20000 kPa | 17.7 ± 0.8 mPa·s
353.15 K, 30000 kPa | 20.1 ± 1 mPa·s
353.15 K, 40000 kPa | 22.8 ± 1.1 mPa·s
353.15 K, 50000 kPa | 25.7 ± 1.2 mPa·s
353.15 K, 60000 kPa | 28.8 ± 1.4 mPa·s
358.15 K, 101.33 kPa | 11.66 ± 0.56 mPa·s and 11.76 ± 0.56 mPa·s
363.15 K, 101.33 kPa | 10.26 ± 0.49 mPa·s and 10.36 ± 0.49 mPa·s
368.15 K, 101.33 kPa | 9.08 ± 0.43 mPa·s and 9.18 ± 0.44 mPa·s
373.15 K, 100 kPa | 8.22 ± 0.39 mPa·s
373.15 K, 101.33 kPa | 8.09 ± 0.39 mPa·s and 8.18 ± 0.39 mPa·s
373.15 K, 1000 kPa | 8.32 ± 0.4 mPa·s
373.15 K, 5000 kPa | 8.78 ± 0.42 mPa·s
373.15 K, 10000 kPa | 9.38 ± 0.45 mPa·s
373.15 K, 20000 kPa | 10.6 ± 0.5 mPa·s
373.15 K, 30000 kPa | 12 ± 0.6 mPa·s
373.15 K, 40000 kPa | 13.5 ± 0.6 mPa·s
373.15 K, 50000 kPa | 15.2 ± 0.7 mPa·s
373.15 K, 60000 kPa | 16.9 ± 0.8 mPa·s

CCCCCCC(=O)OCC(COCC(COC(=O)CCCCCC)(COC(=O)CCCCCC)COC(=O)CCCCCC)(COC(=O)CCCCCC)COC(=O)CCCCCC [dipentaerythritol hexaheptanoate]
Conditions | viscosity
283.15 K, 101.33 kPa | 260.7 ± 18 mPa·s and 259.1 ± 18 mPa·s
288.15 K, 101.33 kPa | 191.1 ± 12 mPa·s and 190 ± 12 mPa·s
293.15 K, 101.33 kPa | 143.1 ± 8.2 mPa·s and 142.2 ± 8.1 mPa·s
298.15 K, 101.33 kPa | 109.2 ± 5.8 mPa·s and 108.5 ± 5.7 mPa·s
303.15 K, 100 kPa | 86.3 ± 4.3 mPa·s
303.15 K, 101.33 kPa | 84.89 ± 4.2 mPa·s and 84.39 ± 4.2 mPa·s
303.15 K, 1000 kPa | 87.7 ± 4.4 mPa·s
303.15 K, 5000 kPa | 93.9 ± 4.8 mPa·s
303.15 K, 10000 kPa | 102 ± 5 mPa·s
303.15 K, 20000 kPa | 121 ± 7 mPa·s
303.15 K, 30000 kPa | 142 ± 8 mPa·s
303.15 K, 40000 kPa | 167 ± 10 mPa·s
303.15 K, 50000 kPa | 194 ± 12 mPa·s
303.15 K, 60000 kPa | 226 ± 15 mPa·s
308.15 K, 101.33 kPa | 67.04 ± 3.2 mPa·s and 66.67 ± 3.2 mPa·s
313.15 K, 100 kPa | 55.8 ± 2.7 mPa·s
313.15 K, 101.33 kPa | 53.73 ± 2.5 mPa·s and 53.45 ± 2.5 mPa·s
313.15 K, 1000 kPa | 56.6 ± 2.7 mPa·s
313.15 K, 5000 kPa | 60.3 ± 2.9 mPa·s
313.15 K, 10000 kPa | 65.3 ± 3.1 mPa·s
313.15 K, 20000 kPa | 76.3 ± 3.7 mPa·s
313.15 K, 30000 kPa | 88.9 ± 4.5 mPa·s
313.15 K, 40000 kPa | 103 ± 5 mPa·s
313.15 K, 50000 kPa | 119 ± 6 mPa·s
313.15 K, 60000 kPa | 138 ± 8 mPa·s
318.15 K, 101.33 kPa | 43.66 ± 2.1 mPa·s and 43.45 ± 2.1 mPa·s
323.15 K, 101.33 kPa | 35.93 ± 1.7 mPa·s and 35.77 ± 1.7 mPa·s
328.15 K, 101.33 kPa | 29.91 ± 1.4 mPa·s and 29.79 ± 1.4 mPa·s
333.15 K, 100 kPa | 25.5 ± 1.2 mPa·s
333.15 K, 101.33 kPa | 25.18 ± 1.2 mPa·s and 25.07 ± 1.2 mPa·s
333.15 K, 1000 kPa | 25.9 ± 1.3 mPa·s
333.15 K, 5000 kPa | 27.5 ± 1.3 mPa·s
333.15 K, 10000 kPa | 29.6 ± 1.4 mPa·s
333.15 K, 20000 kPa | 34.3 ± 1.6 mPa·s
333.15 K, 30000 kPa | 39.5 ± 1.9 mPa·s
333.15 K, 40000 kPa | 45.3 ± 2.2 mPa·s
333.15 K, 50000 kPa | 51.7 ± 2.4 mPa·s
333.15 K, 60000 kPa | 58.8 ± 2.8 mPa·s
338.15 K, 101.33 kPa | 21.39 ± 1 mPa·s and 21.31 ± 1 mPa·s
343.15 K, 101.33 kPa | 18.32 ± 0.87 mPa·s and 18.27 ± 0.87 mPa·s
348.15 K, 101.33 kPa | 15.82 ± 0.75 mPa·s and 15.79 ± 0.75 mPa·s
353.15 K, 100 kPa | 13.8 ± 0.7 mPa·s
353.15 K, 101.33 kPa | 13.77 ± 0.66 mPa·s and 13.75 ± 0.66 mPa·s
353.15 K, 1000 kPa | 14 ± 0.7 mPa·s
353.15 K, 5000 kPa | 14.8 ± 0.7 mPa·s
353.15 K, 10000 kPa | 15.9 ± 0.8 mPa·s
353.15 K, 20000 kPa | 18.2 ± 0.9 mPa·s
353.15 K, 30000 kPa | 20.8 ± 1 mPa·s
353.15 K, 40000 kPa | 23.6 ± 1.1 mPa·s
353.15 K, 50000 kPa | 26.6 ± 1.3 mPa·s
353.15 K, 60000 kPa | 30 ± 1.4 mPa·s
358.15 K, 101.33 kPa | 12.06 ± 0.58 mPa·s
363.15 K, 101.33 kPa | 10.64 ± 0.51 mPa·s
368.15 K, 101.33 kPa | 9.44 ± 0.45 mPa·s and 9.45 ± 0.45 mPa·s
373.15 K, 100 kPa | 8.46 ± 0.4 mPa·s
373.15 K, 101.33 kPa | 8.42 ± 0.4 mPa·s and 8.43 ± 0.4 mPa·s
373.15 K, 1000 kPa | 8.56 ± 0.41 mPa·s
373.15 K, 5000 kPa | 9.04 ± 0.43 mPa·s
373.15 K, 10000 kPa | 9.66 ± 0.46 mPa·s
373.15 K, 20000 kPa | 11 ± 0.5 mPa·s
373.15 K, 30000 kPa | 12.4 ± 0.6 mPa·s
373.15 K, 40000 kPa | 14 ± 0.7 mPa·s
373.15 K, 50000 kPa | 15.7 ± 0.8 mPa·s
373.15 K, 60000 kPa | 17.5 ± 0.8 mPa·s
